Experimental data taken from the NIST ThermoML archive (doi:10.1021/je9001027).
± gives the expanded uncertainty stated by the source.

What was measured:
[1] = cn = amount concentration of the nth substance listed, in mol/dm3; conditions: 101 kPa, Liquid
[2] = wn = mass fraction of the nth substance listed; conditions: 101 kPa, Liquid, w2 = 0

[Br-].[Rb+] [rubidium bromide] + C[S+](C)[O-]
mass density ([1]; 298.15 K, c1 = 0.011): 1096.9 ± 18 kg/m3 | viscosity ([1]; 298.15 K, c1 = 0.011): 1.997 ± 0.18 mPa·s | mass density ([1]; 298.15 K, c1 = 0.02): 1098.3 ± 18 kg/m3 | viscosity ([1]; 298.15 K, c1 = 0.02): 2.019 ± 0.19 mPa·s | mass density ([1]; 298.15 K, c1 = 0.027): 1100.1 ± 18 kg/m3 | viscosity ([1]; 298.15 K, c1 = 0.027): 2.039 ± 0.19 mPa·s | mass density ([1]; 298.15 K, c1 = 0.03): 1100.4 ± 18 kg/m3 | viscosity ([1]; 298.15 K, c1 = 0.03): 2.047 ± 0.19 mPa·s | mass density ([1]; 298.15 K, c1 = 0.046): 1102.5 ± 18 kg/m3 | viscosity ([1]; 298.15 K, c1 = 0.046): 2.085 ± 0.19 mPa·s | mass density ([1]; 303.15 K, c1 = 0.011): 1092.54 ± 18 kg/m3 | viscosity ([1]; 303.15 K, c1 = 0.011): 1.839 ± 0.17 mPa·s | mass density ([1]; 303.15 K, c1 = 0.02): 1097.71 ± 19 kg/m3 | viscosity ([1]; 303.15 K, c1 = 0.02): 1.861 ± 0.17 mPa·s | mass density ([1]; 303.15 K, c1 = 0.026): 1106.91 ± 19 kg/m3 | viscosity ([1]; 303.15 K, c1 = 0.026): 1.877 ± 0.17 mPa·s | mass density ([1]; 303.15 K, c1 = 0.03): 1110.93 ± 19 kg/m3 | viscosity ([1]; 303.15 K, c1 = 0.03): 1.884 ± 0.17 mPa·s | mass density ([1]; 303.15 K, c1 = 0.056): 1134.93 ± 20 kg/m3 | viscosity ([1]; 303.15 K, c1 = 0.056): 1.923 ± 0.18 mPa·s | mass density ([1]; 308.15 K, c1 = 0.011): 1087.75 ± 19 kg/m3 | viscosity ([1]; 308.15 K, c1 = 0.011): 1.682 ± 0.16 mPa·s | mass density ([1]; 308.15 K, c1 = 0.024): 1088.77 ± 19 kg/m3 | viscosity ([1]; 308.15 K, c1 = 0.024): 1.701 ± 0.16 mPa·s | mass density ([1]; 308.15 K, c1 = 0.027): 1088.97 ± 19 kg/m3 | viscosity ([1]; 308.15 K, c1 = 0.027): 1.712 ± 0.16 mPa·s | mass density ([1]; 308.15 K, c1 = 0.03): 1089.97 ± 19 kg/m3 | viscosity ([1]; 308.15 K, c1 = 0.03): 1.722 ± 0.16 mPa·s | mass density ([1]; 308.15 K, c1 = 0.056): 1091.97 ± 19 kg/m3 | viscosity ([1]; 308.15 K, c1 = 0.056): 1.759 ± 0.16 mPa·s | mass density ([1]; 313.15 K, c1 = 0.011): 1087.75 ± 20 kg/m3 | viscosity ([1]; 313.15 K, c1 = 0.011): 1.587 ± 0.15 mPa·s | mass density ([1]; 313.15 K, c1 = 0.02): 1088.77 ± 20 kg/m3 | viscosity ([1]; 313.15 K, c1 = 0.02): 1.604 ± 0.15 mPa·s | mass density ([1]; 313.15 K, c1 = 0.028): 1089.77 ± 20 kg/m3 | viscosity ([1]; 313.15 K, c1 = 0.028): 1.615 ± 0.15 mPa·s | mass density ([1]; 313.15 K, c1 = 0.03): 1089.97 ± 20 kg/m3 | viscosity ([1]; 313.15 K, c1 = 0.03): 1.62 ± 0.15 mPa·s | mass density ([1]; 313.15 K, c1 = 0.046): 1091.97 ± 20 kg/m3 | viscosity ([1]; 313.15 K, c1 = 0.046): 1.659 ± 0.16 mPa·s | mass density ([1]; 318.15 K, c1 = 0.011): 1096.42 ± 21 kg/m3 | viscosity ([1]; 318.15 K, c1 = 0.011): 1.515 ± 0.14 mPa·s | mass density ([1]; 318.15 K, c1 = 0.02): 1096.52 ± 21 kg/m3 | viscosity ([1]; 318.15 K, c1 = 0.02): 1.531 ± 0.14 mPa·s | mass density ([1]; 318.15 K, c1 = 0.027): 1096.58 ± 21 kg/m3 | viscosity ([1]; 318.15 K, c1 = 0.027): 1.542 ± 0.15 mPa·s | mass density ([1]; 318.15 K, c1 = 0.03): 1096.6 ± 21 kg/m3 | viscosity ([1]; 318.15 K, c1 = 0.03): 1.549 ± 0.15 mPa·s | mass density ([1]; 318.15 K, c1 = 0.056): 1096.9 ± 21 kg/m3 | viscosity ([1]; 318.15 K, c1 = 0.056): 1.581 ± 0.15 mPa·s

[Br-].[Rb+] [rubidium bromide] + O
mass density ([1]; 298.15 K, c1 = 0.01): 996.69 ± 16 kg/m3 | viscosity ([1]; 298.15 K, c1 = 0.01): 0.893 ± 0.09 mPa·s | mass density ([1]; 298.15 K, c1 = 0.013): 996.84 ± 16 kg/m3 | viscosity ([1]; 298.15 K, c1 = 0.013): 0.8935 ± 0.09 mPa·s | mass density ([1]; 298.15 K, c1 = 0.02): 997.03 ± 16 kg/m3 | viscosity ([1]; 298.15 K, c1 = 0.02): 0.8953 ± 0.09 mPa·s | mass density ([1]; 298.15 K, c1 = 0.025): 997.28 ± 16 kg/m3 | viscosity ([1]; 298.15 K, c1 = 0.025): 0.8962 ± 0.09 mPa·s | mass density ([1]; 298.15 K, c1 = 0.038): 997.79 ± 16 kg/m3 | viscosity ([1]; 298.15 K, c1 = 0.038): 0.8966 ± 0.09 mPa·s | mass density ([1]; 303.15 K, c1 = 0.01): 996.08 ± 17 kg/m3 | viscosity ([1]; 303.15 K, c1 = 0.01): 0.8934 ± 0.09 mPa·s | mass density ([1]; 303.15 K, c1 = 0.013): 996.08 ± 17 kg/m3 | viscosity ([1]; 303.15 K, c1 = 0.013): 0.8937 ± 0.09 mPa·s | mass density ([1]; 303.15 K, c1 = 0.02): 996.14 ± 17 kg/m3 | viscosity ([1]; 303.15 K, c1 = 0.02): 0.8943 ± 0.09 mPa·s | mass density ([1]; 303.15 K, c1 = 0.025): 996.17 ± 17 kg/m3 | viscosity ([1]; 303.15 K, c1 = 0.025): 0.8946 ± 0.09 mPa·s | mass density ([1]; 303.15 K, c1 = 0.038): 996.24 ± 16 kg/m3 | viscosity ([1]; 303.15 K, c1 = 0.038): 0.895 ± 0.09 mPa·s | mass density ([1]; 308.15 K, c1 = 0.01): 989.87 ± 17 kg/m3 | mass density ([1]; 308.15 K, c1 = 0.013): 989.89 ± 17 kg/m3 | mass density ([1]; 308.15 K, c1 = 0.02): 989.99 ± 17 kg/m3 | mass density ([1]; 308.15 K, c1 = 0.024): 990.03 ± 17 kg/m3 | mass density ([1]; 308.15 K, c1 = 0.035): 990.13 ± 17 kg/m3 | viscosity ([1]; 318.15 K, c1 = 0.01): 0.5367 ± 0.059 mPa·s | viscosity ([1]; 318.15 K, c1 = 0.013): 0.537 ± 0.059 mPa·s | viscosity ([1]; 318.15 K, c1 = 0.02): 0.5375 ± 0.059 mPa·s | viscosity ([1]; 318.15 K, c1 = 0.024): 0.5378 ± 0.059 mPa·s | viscosity ([1]; 318.15 K, c1 = 0.034): 0.5383 ± 0.059 mPa·s

O [water] + C[S+](C)[O-]
viscosity ([2]; 298.15 K): 0.89 ± 0.089 mPa·s | viscosity ([2]; 303.15 K): 0.8003 ± 0.082 mPa·s | mass density ([2]; 308.15 K): 983.66 ± 17 kg/m3 | viscosity ([2]; 308.15 K): 0.7591 ± 0.078 mPa·s | viscosity ([2]; 313.15 K): 0.6214 ± 0.066 mPa·s | viscosity ([2]; 318.15 K): 0.5346 ± 0.059 mPa·s
